# Data as given in patent US7897369B2, “Isoprenoid wax ester synthases, isoprenoid acyl CoA-synthetases, and uses thereof” (Regents of the University of Minnesota, priority 2007, dated 2011).
# Entries after “also recorded” stand apart in the source; their conditions may differ.
# T1: Acinetobacter WS/DGAT (Acinetobacter baylyi, UniProt Q8GGG1)
# T1 construct: His6 (N); made in house
# T1 sequence (Q8GGG1 1-458): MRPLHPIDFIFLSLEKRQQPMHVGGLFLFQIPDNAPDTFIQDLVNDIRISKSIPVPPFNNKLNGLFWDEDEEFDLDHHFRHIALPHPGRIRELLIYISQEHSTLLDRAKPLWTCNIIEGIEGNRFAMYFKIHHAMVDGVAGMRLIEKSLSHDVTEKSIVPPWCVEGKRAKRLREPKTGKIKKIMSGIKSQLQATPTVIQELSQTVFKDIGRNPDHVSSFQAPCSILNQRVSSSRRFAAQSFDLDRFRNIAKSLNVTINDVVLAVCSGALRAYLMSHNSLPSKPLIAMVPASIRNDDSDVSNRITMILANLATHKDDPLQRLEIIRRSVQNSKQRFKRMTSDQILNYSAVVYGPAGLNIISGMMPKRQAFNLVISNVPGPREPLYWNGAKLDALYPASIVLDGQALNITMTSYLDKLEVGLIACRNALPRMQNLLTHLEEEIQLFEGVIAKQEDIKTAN
# B1: WS2 (Marinobacter nauticus) (protein)
# chain: MKRLGTLDASWLAVESEDTPMHVGTLQIFSLPEGAPETFLRDMVTRMKEAGDVAPPWGYKLAWSGFLGRVIAPAWKVDKDIDLDYHVRHSALPRPGGERELGILVSRLHSNPLDFSRPLWECHVIEGLENNRFALYTKMHHSMIDGISGVRLMQRVLTTDPERCNMPPPWTVRPHQRRGAKTDKEASVPAAVSQAMDALKLQADMAPRLWQAGNRLVHSVRHPEDGLTAPFTGPVSVLNHRVTAQRRFATQHYQLDRLKNLAHASGGSLNDIVLYLCGTALRRFLAEQNNLPDTPLTAGIPVNIRPADDEGTGTQISFMIASLATDEADPLNRLQQIKTSTRRAKEHLQKLPKSALTQYTMLLMSPYILQLMSGLGGRMRPVFNVTISNVPGPEGTLYYEGARLEAMYPVSLIAHGGALNITCLSYAGSLNFGFTGCRDTLPSMQKLAVYTGEALDELESLILPPKKRARTRK
# How the values were obtained:
# [1] = target: T2, WS2 (Marinobacter nauticus, UniProt A3RE51); experiment: WS2 kinetics on ethanol and oleoyl-CoA (DTNB); format: biochemical, Marinobacter hydrocarbonoclasticus
# Experimental: (§1) […] Assay reactions were pre-incubated at 37° C. for 5 minutes before the reactions were started by the addition of enzyme.
# [2] = system: WS1; experiment: Kinetic WS assay, spectrophotometric (CoA release, DTNB); format: biochemical, Marinobacter hydrocarbonoclasticus DSM 8798
# Experimental: (§2) WS activity was determined by monitoring CoA release using Ellman's reagent [5,5′-dithio-bis(2-nitrobenzoic acid); DTNB] at 412 nm (ε=13,600 M^−1 cm^−1) (Ellman, 1959. Arch. Biochem. Biophys. 82:70-77). Kinetic in vitro assays were performed in triplicate in 125 mM sodium phosphate buffer (pH 7.4) containing 0.1% Tergitol NP-11 detergent, 10 mM MgCl2, 1 mM DNTB, 250 μM palmitoyl-CoA, 1 to 250 μM hexadecanol, and 0.5 μg of WS enzyme. Assay reactions were preincubated at 37° C. for 5 min before the reactions were started by the addition of enzyme. Heat-denatured enzyme (99° C. for 15 min) was used as a negative control.
# (§3) Acyl-CoA and fatty/isoprenoid alcohol specificity of WS2 was determined in the same manner as described for the kinetic WS assay with assumed saturating conditions containing both the fatty/isoprenoid alcohol and acyl-CoA substrates at a concentration of 1 mM. Acyl-CoA specificity was measured with hexadecanol as acyl acceptor, whereas palmitoyl-CoA was used as acyl donor to determine alcohol specificity. Isoprenoid WS activity of WS2 was determined with 250 μM HPLC purified phytanoyl-CoA and 250 μM phytol as substrates.
# (§4) A spectrophotometric assay was developed to determine the kinetic properties of WS1 and WS2. The concentration of sulfhydryl groups of CoA released during the condensation reaction between fatty/isoprenoid CoA activated acids and alcohols was determined by using Ellman's reagent (DTNB) (Ellman, 1959. Arch. Biochem. Biophys. 82:70-77). The specific activities of WS1, WS2, and Acinetobacter WS/DGAT were measured with palmitoyl-CoA and hexadecanol, palmitoyl-CoA and phytol, and phytanoyl-CoA and phytol. Phytanoyl-CoA for these assays was enzymatically synthesized from phytanic acid and CoA using the above-characterized isoprenoid/acyl-CoA synthetase Acs2.
# [3] = target: T2, WS2; experiment: as above; format: biochemical, Marinobacter hydrocarbonoclasticus DSM 8798
# Experimental: Assay reactions were preincubated at 37° C. for 5 min before the reactions were started by the addition of enzyme. Heat-denatured enzyme (99° C. for 15 min) was used as a negative control.
# as §3, with “specificity.” for “specificity. Isoprenoid WS activity of WS2 was determined with 250 μM HPLC purified phytanoyl-CoA and 250 μM phytol as substrates.”
# A spectrophotometric assay was developed to determine the kinetic properties of WS1 and WS2. […] The specific activities of WS1, WS2, and Acinetobacter WS/DGAT were measured with palmitoyl-CoA and hexadecanol, palmitoyl-CoA and phytol, and phytanoyl-CoA and phytol. Phytanoyl-CoA for these assays was enzymatically synthesized from phytanic acid and CoA using the above-characterized isoprenoid/acyl-CoA synthetase Acs2.
# [4] = target: T1, Acinetobacter WS/DGAT; experiment: as above; format: biochemical
# Experimental: as §2, §3, §4
# [5] = system: WS1; experiment: Coupled enzyme assay, WS substrate profile (TLC); format: biochemical, Marinobacter hydrocarbonoclasticus DSM 8798; conditions: coupled reaction; palmitic acid with hexadecanol, phytanic acid with phytol, phytanoyl-CoA with the alcohols named in the value
# Experimental: (§5) Stock solutions of various substrates were prepared in 50 mM Tris-HCl buffer (pH 8) containing 1% gum arabic, 12.5 μg bovine serum albumin ml^−1, 0.1% taurocholate, and either 100 mM fatty acid, isoprenoid acid, fatty alcohol, or isoprenoid alcohol. Stock solutions were sonicated to disperse the substrates. Substrate profiles of the three WS were tested using coupled enzyme in vitro reactions in which the CoA synthetases Acs1 and Acs2 are added to synthesize the CoA-activated fatty acid phytanic acid substrates from corresponding acid precursors for the WS reactions. Assays were carried out in 500-μl reactions containing in 50 mM Tris-HCl buffer (pH 8.0), 12.5 μl of each acid, and alcohol substrate stock solution (final concentrations of each substrate of 250 μM), 10 mM MgCl2, 10 mM CoASH, 10 mM ATP, 5 mM TCEP, 0.1 U of inorganic pyrophosphatase, 0.25 μg of Acs1 and Acs2 CoA synthetase, and 0.5 μg of WS to be tested. Assays were incubated at 37° C. overnight before thin-layer chromatography (TLC) analysis of the reaction products.
# (§6) In vitro WS assay samples were extracted with 500 μl of chloroformmethanol (1:1 [vol/vol]), and extracts were analyzed by TLC with Whatman normal phase silica gel 60 plates and developed using hexane-diethyl ether-acetic acid (90:10:1 [vol/vol/vol]). TLC plates were stained with either iodine vapor or anisaldehyde solution as described earlier (Jork et al., 1990. Thin-layer chromatography reagents and detection methods, vol. 1a. Physical and chemical detection methods: fundamentals, reagents. VHC, Weinheim, Germany). Palmitoyl palmitate and triolein were used as WE and TAG reference compounds, respectively.
# [6] = target: T2, WS2; experiment: Coupled enzyme assay, WS substrate profile (TLC); format: biochemical, Marinobacter hydrocarbonoclasticus DSM 8798; conditions: coupled reaction; palmitic acid with hexadecanol, phytanic acid with phytol, phytanoyl-CoA with the alcohols named in the value
# Experimental: as §5, §6
# [7] = substrate: CCCCCCCCCCCCCCCCO; experiment: Kinetic WS assay, spectrophotometric (CoA release, DTNB); format: biochemical, Marinobacter hydrocarbonoclasticus DSM 8798; conditions: other: saturating palmitoyl-CoA (250 μM), various concentrations of hexadecanol; pH 7.4
# [8] = substrate: CCCCCCCC/C=C\CCCCCCCC(=O)SCCNC(=O)CCNC(=O)[C@H](O)C(C)(C)COP(=O)(O)OP(=O)(O)OC[C@H]1O[C@@H](n2cnc3c(N)ncnc32)[C@H](O)[C@@H]1OP(=O)(O)O; experiment: WS2 kinetics on ethanol and oleoyl-CoA (DTNB); format: biochemical, Marinobacter hydrocarbonoclasticus; conditions: other: steady state; varied substrate 10 μM-250 μM, other substrate (oleoyl-CoA or ethanol) 500 μM; pH 7.2; 37.0 °C
# Experimental: as §1
# [9] = steady state, varied substrate 10 μM-250 μM, other substrate (oleoyl-CoA or ethanol) 500 μM
# [10] = co-substrate hexadecanol (C16), listed as palmitoyl-CoA
molecule,measurement,setting,value
CCO [Ethanol],Kcat of WS2,[1]; steady state on ethanol and oleoyl-CoA,32 s⁻¹
same,Km,[1]; [9],17 µM
same,Vmax of WS2,[1]; [9],1250 μmol (mg/min)^−1
"CCCCCCCCCCCCCCCC(=O)SCCNC(=O)CCNC(=O)[C@H](O)C(C)(C)COP(=O)(O)OP(=O)(O)OC[C@H]1O[C@@H](n2cnc3c(N)ncnc32)[C@H](O)[C@@H]1OP(=O)(O)O [Palmitoyl-CoA, palmitoyl-CoA (C16:0)]",Mean sp act ± SD of Marinobacter WS1,[2]; co-substrate hexadecanol (C16),1.338 ± 0.5 mmol/min/mg
same,Mean sp act ± SD of Marinobacter WS1,[2]; [10],1.3 mmol/min/mg
same,Mean sp act ± SD of Marinobacter WS1,[2]; co-substrate phytol,0.152 ± 0.011 mmol/min/mg
same,Mean sp act ± SD of Marinobacter WS2,[3]; co-substrate hexadecanol (C16),61.323 ± 1.79 mmol/min/mg
same,Mean sp act ± SD of Marinobacter WS2,[3]; [10],61 mmol/min/mg
same,Mean sp act ± SD of Marinobacter WS2,[3]; co-substrate phytol,28.872 ± 2.13 mmol/min/mg
same,Acyl-CoA specificity of WS2,"[3]; hexadecanol as acyl acceptor, both substrates 1 mM",clear preference
same,WS2 more active than WS1 or Acinetobacter WS/DGAT in creating the hybrid WE,[3]; palmitoyl-CoA and phytol as substrates,20 fold
same,Mean sp act ± SD of Acinetobacter WS/DGAT,[4]; co-substrate hexadecanol (C16),0.389 ± 0.039 mmol/min/mg
same,Mean sp act ± SD of Acinetobacter WS/DGAT,[4]; [10],0.38 mmol/min/mg
same,Mean sp act ± SD of Acinetobacter WS/DGAT,[4]; co-substrate phytol,0.138 ± 0.003 mmol/min/mg
CC(C)CCCC(C)CCCC(C)CCCC(C)CC(=O)SCCNC(=O)CCNC(=O)[C@H](O)C(C)(C)COP(=O)(O)OP(=O)(O)OC[C@H]1O[C@@H](n2cnc3c(N)ncnc32)[C@H](O)[C@@H]1OP(=O)(O)O (stereo partly drawn) [Phytanoyl-CoA],"WE product formation by WS1 (TLC), in words",[5],fatty alcohols were not condensed to phytanoyl-CoA; also recorded: produced isoprenoid WEs from phytanoyl-CoA and the isoprenoid alcohols phytol and farnesol
same,"WE product formation by WS2 (TLC), in words",[6],fatty alcohols were not condensed to phytanoyl-CoA; also recorded: produced isoprenoid WEs from phytanoyl-CoA and the isoprenoid alcohols phytol and farnesol
same,Mean sp act ± SD of Marinobacter WS2,[3]; co-substrate phytol,0.397 ± 0.099 mmol/min/mg
same,Mean sp act ± SD of Marinobacter WS2,"[3]; co-substrate phytol, listed as phytanoyl-CoA",0.397 mmol/min/mg
B1,WS2 more active in vitro in producing acyl ester products than Acinetobacter WS/DGAT,[3]; in vitro,approximately 150 times
same,Km,[7],44 µM
same,Vmax,[7],10 mmol/mg/min
same,kcat,[7],"4,794 s^−1"
same,Km,[8],23 µM
same,kcat/Km,[8],2.56 × 10^6 (M^−1 s^−1) M^−1 s^−1
